From patent US20070004735A1, “Method for inhibiting the replication of herpes viruses” (priority 2003, published 2007) come the findings set out here.

For assay [1], the system named is Human cytomegalovirus (HCMV). Briefly: Anti-HCMV cytopathogenicity test. In kind it is cell-based. The note with it: for pIC50: Human betaherpesvirus 5, 144 h, NHDF cells, 6 days, cytopathogenic effect, read-out: IC50, antiviral activity in vitro; for SI (selectivity index): antiviral activity in vitro. As to the method:
Human cytomegalovirus (HCMV), DavisSmith (ATCC VR807) or AD169 (ATCC VR538) strain, is grown in vitro on human embryonic prepuce fibroblasts (NHDF cells). After the NHDF cells have been infected with a multiplicity of infection (M.O.I.) of 0.01, the virus-infected cells are harvested 5-10 days later and stored in the presence of minimal essential medium (MEM), 10% fetal calf serum (FCS) with 10% DMSO at −80° C. A cell-free stock is produced by removing only the cell culture supernatant and immediately freezing at −80° C. After serial ten-fold dilutions of the virus-infected cells or of the cell culture supernatant of the virus-infected cells (cell-free virus), the titer is determined on 24-well plates of confluent NHDF cells after vital staining with neutral red.
(§1) The test compounds are employed as 50 millimolar (mM) solutions in dimethyl sulfoxide (DMSO). Ganciclovir®, Foscarnet® and Cidofovir® are used as reference compounds. After addition of in each case 2 μl of the 50, 5, 0.5 and 0.05 mM DMSO stock solutions to 98 μl portions of cell culture medium in row 2 A-H for duplicate determinations, 1:2 dilutions are carried out with 50 μl portions of medium up to row 11 of the 96-well plate. The wells in rows 1 and 12 each contain 50 μl of medium. 150 μl of a suspension of 1×10^4 cells (human prepuce fibroblasts [NHDF]) are then pipetted into each of the wells (row 1=cell control) and, in rows 2-12, a mixture of HCMV-infected and uninfected NHDF cells (M.O.I.=0.001-0.002), i.e. 1-2 infected cells per 1000 uninfected cells. Row 12 (without substance) serves as virus control. The final test concentrations are 250-0.0005 μM. The plates are incubated at 37° C./5% CO2 for 6 days, i.e. until all the cells are infected in the virus controls (100% cytopathogenic effect [CPE]). The wells are then fixed and stained by adding a mixture of formalin and Giemsa's dye (30 minutes), washed with double-distilled water and dried in a drying oven at 50° C. The plates are then assessed visually using an overhead microscope (plaque multiplier from Technomara).

For assay [2], the system named is HCMV AD169 clone with mutation in UL86 P1189T. Description: Susceptibility (IC50) of resistant HCMV AD169 clone P1189T. It is filed as cell-based, Human cytomegalovirus. The note with it: Human betaherpesvirus 5, read-out: IC 50, P1189T. As to the method: as §1
(§2) For this purpose, NHDF cells are seeded in tissue culture vessels. 5×10^3 cells per well are seeded in 96-well plates and infected with cell-free HCMV AD169 with an moi of 0.03. The infections are cultivated under substance pressure which corresponds to 10 times the IC50 of the substance. Preferably, 30-100 96-well plates inoculated as described are made up. […] Finally, viral stocks are produced as described above and frozen. Serial ten-fold dilution of the virus-infected cells or of the cell culture supernatant of the virus-infected cells is followed by determination of the titer on 24-well plates of confluent NHDF cells after vital staining with neutral red. Finally, the susceptibility to various substances (IC50 determination) is determined as described above.
(§3) The HCMVAD169 mutants selected as described above are grown in vitro on human embryonic prepuce fibroblasts (NHDF cells) under substance pressure (10×IC50 HCMVAD169). After infection of the NHDF cells with a multiplicity of infection (M.O.I) of 0.01, the virus-infected cells are harvested 5-10 days later, and the total DNA is isolated from these cells with the aid of established standard methods (e.g. phenol extraction and ethanol precipitation). Qiagen Sequencing Services (Qiagen, Hilden) determined, after amplification of the viral UL86 gene by PCR, the DNA sequence, which was then transcribed into protein sequence. Compared with the initial strain HCMV AD169, the differences shown in table 2 were detectable in the protein sequence of the major capsid protein (UL86) in the resistant viruses. The IC50 values [μM] of various substances on these mutants compared with the initial strain are likewise indicated. (n.d.=not measured). […] Depending on the nature of the substance, certain mutations lead to various extents of resistance.

Assay [3] relates to HCMV AD169 clone with mutation in UL86 R682H. Briefly: Susceptibility (IC50) of resistant HCMV AD169 clone R682H. It is filed as cell-based, Human cytomegalovirus. The note with it: Human betaherpesvirus 5, read-out: IC 50, R682H. As to the method:
as §1, §2, §3

For another assay, the system named is HCMV Davis or HCMV AD169. Briefly: HCMV Xenograft Gelfoam model. It is filed as in vivo, immunodeficient mice. The note with it: oral treatment over 8 days, infectious virus particles vs placebo-treated control; approximate results. From the text:
3-4-week old female immunodeficient mice (16-18 g), Fox Chase SCID or Fox Chase SCID-NOD or SCID beige, are purchased from commercial breeders (Bomholtgaard, Jackson, USA). The animals are housed under sterile conditions (including bedding and feed) in isolators.
Collagen sponges 1×1×1 cm in size (Gelfoam®; from Peasel & Lorey, order No. 407534; K. T. Chong et al., Abstracts of 39th Interscience Conference on Antimicrobial Agents and Chemotherapy, 1999, p. 439) are initially wetted with phosphate-buffered saline (PBS), the trapped air bubbles are removed by degassing, and then stored in MEM+10% FCS. 1×10^6 virus-infected NHDF cells (infection with HCMV Davis or HCMV AD169 M.O.I.=0.03) are detached 3 hours after infection and added in a drop of 20 μl of MEM, 10% FCS, to a moist sponge. 12-13 hours later, the infected sponges are incubated with 25 μl of PBS/0.1% BSA/1 mM DTT with 5 ng/μl basic fibroblast growth factor (bFGF). For the transplantation, the immunodeficient mice are anesthetized with Avertin or a ketamine/xylazine/azepromazine mixture, the fur on the back is removed using a shaver, the epidermis is opened 1-2 cm, unstressed and the moist sponges are transplanted under the dorsal skin. The surgical wound is closed with tissue glue. 6 hours after the transplantation, the mice are treated for the first time (one treatment is given on the day of the operation). On subsequent days, oral treatment with the substance is carried out three times a day (7.00 h and 14.00 h and 19.00 h), twice a day (8 h and 18 h) or once a day (14 h) over a period of 8 days. The daily dose is for example 3 or 10 or 30 or 60 or 100 mg/kg of body weight, the volume administered is 10 ml/kg of body weight. The substances are formulated in the form of a 0.5% strength Tylose suspension with 2% DMSO or a 0.5% strength Tylose suspension. […] The number of infectious virus particles after the substance treatment compared with the placebo-treated control group is determined.

pIC50: −log10 of the molar value.

Consider `CCCCC(=O)Nc1ccc(NC(=O)Nc2ccc(F)c(Cl)c2)cc1` [Example 4, N-[4-({[(3-Chloro-4-fluorophenyl)amino]carbonyl}amino)phenyl]pentanamide], for which the results for the pIC50 in assay [1], in assay [2] and in assay [3] were 7.10, 5.70 and 6.30, respectively. Also, the “SI (selectivity index)” value in assay [1] worked out at 750. In the assay with HCMV Davis or HCMV AD169, the “ED50, antiviral activity in vivo” value turned out to be 70 mg/kg/day.
Take `CC1(C)CC(=O)NN=C1c1cccc(NC(=O)Nc2ccc(F)cc2F)c1` [Example 1, N-(2,4-Difluorophenyl)-N′-[3-(4,4-dimethyl-6-oxo-1,4,5,6-tetrahydro-3-pyridazinyl)phenyl]urea]: the pIC50 was 6.00 in assay [1], less than 3.90 in assay [2] and 4.70 in assay [3]. For the same compound, in assay [1], the “SI (selectivity index)” value worked out at 125. For the same compound, in the assay with HCMV Davis or HCMV AD169, the “ED50, antiviral activity in vivo” value is 50 mg/kg/day.
In the same order, the values of `CC1(C)CC(=O)NN=C1c1cc(NC(=O)Nc2cc(F)ccc2F)ccc1O` [Example 2, N-(2,5-Difluorophenyl)-N′-[3-(4,4-dimethyl-6-oxo-1,4,5,6-tetrahydro-3-pyridazinyl)-4-hydroxyphenyl]urea] are 6.40, less than 3.90, 5.52, 325 and 45 mg/kg/day.
